Measured values reported in patent US20050214248A1, “Non-glycosylated polyacrylamide conjugates and their use for cytoprotection” (University of Bern, priority 2002, published 2005).
Read-outs that look alike come from different tables or passages of the source. Values belong to the molecule of their own block, whether it stands above or below them.

Experiments:
[1] = biological target: T1, P-selectin (Homo sapiens, UniProt P16109); conditions: cited from earlier work
T1 sequence (P16109 42-830): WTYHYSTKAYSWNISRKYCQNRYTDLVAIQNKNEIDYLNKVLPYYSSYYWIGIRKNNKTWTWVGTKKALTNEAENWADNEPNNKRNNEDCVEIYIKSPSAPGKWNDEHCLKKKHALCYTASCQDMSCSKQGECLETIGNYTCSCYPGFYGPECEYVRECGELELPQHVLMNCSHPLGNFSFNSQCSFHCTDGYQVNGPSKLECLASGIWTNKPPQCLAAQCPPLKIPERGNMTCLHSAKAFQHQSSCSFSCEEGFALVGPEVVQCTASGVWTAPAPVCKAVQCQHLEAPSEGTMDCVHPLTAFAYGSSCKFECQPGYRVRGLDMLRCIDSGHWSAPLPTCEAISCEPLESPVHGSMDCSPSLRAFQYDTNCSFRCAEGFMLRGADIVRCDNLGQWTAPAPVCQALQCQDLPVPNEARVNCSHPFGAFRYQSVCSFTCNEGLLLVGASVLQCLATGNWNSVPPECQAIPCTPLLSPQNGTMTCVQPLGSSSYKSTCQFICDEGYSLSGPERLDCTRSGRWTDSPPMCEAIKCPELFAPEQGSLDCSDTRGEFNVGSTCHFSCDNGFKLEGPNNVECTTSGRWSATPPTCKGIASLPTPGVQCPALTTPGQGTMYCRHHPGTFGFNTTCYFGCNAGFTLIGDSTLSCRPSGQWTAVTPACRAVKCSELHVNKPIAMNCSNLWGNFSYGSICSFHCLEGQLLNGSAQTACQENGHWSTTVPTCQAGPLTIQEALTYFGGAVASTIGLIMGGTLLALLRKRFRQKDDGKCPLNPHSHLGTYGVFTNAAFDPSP

[2] = biological target: T2, recombinant P-selectin (Homo sapiens, UniProt P16109); assay: In vitro assay for inhibition of P-selectin binding (HSO3Le^a-PAA-biotin binding to immobilized recombinant selectin); conditions: for inhibition of recombinant P-selectin in the cell-free assay: result in words
T2 construct: Recombinant ZZ-selectin (monovalent) lacking the transmembrane and cytosolic domains was produced as C-terminal chimera with the ZZ domain of protein A; made in house
T2 sequence (P16109 42-771 limits assumed): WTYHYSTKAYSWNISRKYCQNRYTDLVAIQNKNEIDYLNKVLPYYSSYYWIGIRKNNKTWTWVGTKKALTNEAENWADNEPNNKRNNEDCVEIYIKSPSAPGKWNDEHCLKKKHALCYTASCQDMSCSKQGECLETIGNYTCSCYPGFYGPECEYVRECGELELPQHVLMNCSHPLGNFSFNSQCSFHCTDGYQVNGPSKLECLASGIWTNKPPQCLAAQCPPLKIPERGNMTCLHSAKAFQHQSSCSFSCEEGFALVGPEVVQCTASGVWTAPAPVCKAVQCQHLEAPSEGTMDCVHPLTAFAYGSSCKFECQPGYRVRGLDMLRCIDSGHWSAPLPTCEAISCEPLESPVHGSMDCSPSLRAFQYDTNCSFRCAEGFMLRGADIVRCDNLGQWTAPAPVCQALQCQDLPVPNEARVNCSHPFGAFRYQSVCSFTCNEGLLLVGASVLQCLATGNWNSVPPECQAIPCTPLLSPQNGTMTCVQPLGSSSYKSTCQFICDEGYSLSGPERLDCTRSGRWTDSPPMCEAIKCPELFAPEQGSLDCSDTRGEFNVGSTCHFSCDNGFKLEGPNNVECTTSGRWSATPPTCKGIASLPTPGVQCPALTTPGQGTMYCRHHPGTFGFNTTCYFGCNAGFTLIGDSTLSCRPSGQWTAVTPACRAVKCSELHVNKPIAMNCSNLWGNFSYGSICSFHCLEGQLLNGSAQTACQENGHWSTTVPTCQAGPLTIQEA
Source text: The in vitro test-system is based on the inhibition of HSO3Le^a-PAA-biotin binding to recombinant P-selectin. For details, see example 1.
All PAA-based neoglycoconjugates were from 30 to 40 kDa and obtained according to standard methods (Gordeeva, E. A., Tuzikov, A. B., Galanina, O. E., Pochechueva, T. V. & Bovin, N. V. (2000). Microscale synthesis of glycoconjugate series and libraries. Anal. Biochem. 278, 230-232; Bovin, N. V., Korchagina, E. Yu., Zemlyanukhina, T. V., Byramova, N. E., Galanina, O. E., Zemlyakov, A. E., Ivanov, A. E., Zubov, V. P., and Mochalova, L. V. (1993) Synthesis of polymeric neoglycoconjugates based on N-substituted polyacrylamide. Glycoconj. J. 10, 142-151). sTyr-PAA (containing 80 mol % sTyr) was synthesized using 200% excess of sTyr in relation to the activated polymer. The degree of sTyr substitution was determined by the conjugate's increase in weight. Recombinant ZZ-selectin (monovalent) lacking the transmembrane and cytosolic domains was produced as C-terminal chimera with the ZZ domain of protein A (Priest, R., Nawaz, S., Green, P. M., and Bird, M. I. (1995). Adhesion of eosinophils to E- & P-selectin. Biochem. Soc. Trans. 23, 162S). Tripeptide Tyr-Tyr-Tyr (Bachem, Germany) and aminoglucitol (Sigma) were per-O-sulfated with SO3/Py complex (Field, R. A., Otter, A., Fu, W., Hindsgaul, O. Carbohydr. Res. 1995, 276, 347-363). Fucoidan was purchased from Sigma (USA).
The assay was performed on 96-Well plates. Human IgG was used as a primary coating reagent to immobilize recombinant selectin via the ZZ-domain of the fusion protein. The working concentration of selectin was 3 ng/well. […] Details of this assay were published in (Game, S. M., Rajapurohit, P. K., Clifford, M., Bird, M. I., Priest, R., Bovin, N. V., Nifant'ev, N. E., O'Beime, G., and Cook, N. D. (1998) Scintillation proximity assay for E-, P-, and L-selectin utilizing polyacrylamide-based neoglycoconjugates as ligands. Anal. Biochem. 258, 127-135; Tatyana V. Pochechueva, Oxana E. Galanina, Michael I. Bird, Nikolay E. Nifant'ev, Nicolai V. Bovin. Assembly of P-Selectin Ligands on a Polymeric Template, Chem&Biol, Vol. 9, 2002, p. 757-762; Natalia Ushakova, Marina Preobrazhenskaya, Mike I. Bird, Richard Priest, A. V. Semenov, A. V. Mazurov, Nikolay Ni-fant'ev, Tatyana Pochechueva, Oxaha Galanina, Nicolai Bovin. Monomeric and Multimeric Blockers of Selectins: Comparison of In Vitro and In Vivo Activity/Biol. Chem. Hoppe Seyler, 2002 submitted).

[3] = test system: yield of neutrophils; conditions: mouse; Cecconi et al. 1994; cited from earlier work
[4] = test system: Peptone-induced acute rat peritonitis; assay: Rat peritoneal inflammation model (peptone-induced acute peritonitis, neutrophil extravasation); type: in vivo
Experimental: Acute rat peritonitis was induced as described in (Preobrazhenskaya, M. E., Berman, A. E., Mikhailov, V. I., Ushakova, N. A., Mazurov, A. V., Semenov, A. V., Usov, A. I., Nifant'ev, N. E., and Bovin, N. V. (1997) Fucoidan inhibits leukocyte recruitment in a model peritoneal inflammation in rat and blocks interaction of P-selectin with its carbohydrate ligand. Biochem. Mol. Biol. Int 43, 443-451) with some modifications. 10 ml of PBS containing 10% peptone was injected intraperitoneally into female Wistar rats (180-220 g). After 3 h rats were sacrificed and their peritoneal cavities were laved with 30 ml PBS containing 60 units/ml of heparin, 0.02% EDTA and 0.03% bovine serum. The total cell number in the lavage was counted and the cell suspension was concentrated by centrifugation at 400 g for 10 min. After 1:1 dilution with bovine serum smears were prepared and stained according to the Pappenheim method. Neutrophils were counted on two parallel slides and the total neutrophil number was calculated. The inhibitors were administered intravenously as a single dose in 0.3 ml sterile 0.9% NaCl 15 min after peptone injection. The same volume of NaCl solution Was injected into control animals. A difference between the control and tested groups was analyzed for statistical significance based on Student's t-test, p-values<0.05 were considered to be significant.
Peptone-induced acute rat peritonitis was characterized by neutrophil extravasation into the peritoneal cavities. […] A natural ligand such as recombinant PSGL-1 acts in a dose of about 1 mg/kg (S. P. Khor, K. McCarthy, M. Dupont, K. Murray, G. Timony. Pharmacokinetics, pharmacodynamics, allometry, and dose selection of rPSGL-Ig for phase I trial. J. Pharmacol. Exp. Ther., 293, 618-624 (2000); R. Hayward, B. Campbell, Y. K. Shin, R. Scalia, A. M. Lefer. Recombinant soluble P-selectin glycoprotein ligand-1 protects against myocardial ischemic reperfusion injury in cats. Cardiovascular Res., 41, 65-76 (1999)) which approaches the fucoidan activity under study. […]

[5] = inhibition of HSO3Le^a-PAA-biotin binding with P-selectin, means of at least triplicate determinations

Molecule: 3-0-sulfated galactocerebroside [sulfatide]
IC50 ([1]; Marinier et al. 1997, sulfatide and some of its synthetic analogues): 100 to 1000 nM

Molecule: CC(=O)NC1C(O)OC(CO)C(OC2OC(C)C(O)C(O)C2O)C1OC1OC(CO)C(O)C(OS(=O)(=O)O)C1O (centres unmarked) [HSO3Le^a, 3′-HSO3Galβ1-3(Fucα1-4)GIcNAc]
IC50, μM [2, 5]: Nl

Molecule: O=P(O)(O)O[C@H]1[C@H](OP(=O)(O)O)[C@@H](OP(=O)(O)O)[C@H](OP(=O)(O)O)[C@@H](OP(=O)(O)O)[C@H]1OP(=O)(O)O [Inositol hexaphosphate]
dose inhibiting the yield of neutrophils (almost half of them) [3]: about 70 mg/kg

Molecule: Fucoidan
IC50 [2, 5]: 100 nM | IC50 in weight ([2]; inhibition of HSO3Le^a-PAA-biotin binding with P-selectin, weight concentration): (100 ng/ml)^2 | Mean inhibition (% to control) ([4]; Series 2, 1.0 mg per rat i.v.): 92 (p < 0.001) % | Number of neutrophils per rat × 10^−6 ([4]; Series 2, 1.0 mg per rat i.v., mean ± SEM): 2.5 ± 0.5 × 10^−6 | blocking of the inflammation process ([4]; result in words): definitely blocked the inflammation process | IC50 ([1]; Pochechueva et al., Ley et al. 1993, repeating hexasaccharide units): 100 nM

Molecule: Hexa-O-sulfo-aminoglucitol
IC50, μM [2, 5]: Nl | inhibition of recombinant P-selectin in the cell-free assay [2]: unable to inhibit

Second part, the molecule after the results:

IC50, μM [2, 5]: Nl
Molecule: N[C@@H](Cc1ccc(OS(=O)(=O)O)cc1)C(=O)O [sTyr, tyrosine-O-sulfate]

IC50, μM [2, 5]: Nl | inhibition of recombinant P-selectin in the cell-free assay [2]: unable to inhibit
Molecule: Tripeptide Tyr-Tyr-Tyr per-O-sulfated with SO3/Py complex [sTyr-sTyr-sTyr]
